What is called Ki is a measure of affinity in units of concentration, obtained from inhibition or displacement.

Structures can show the parent of a compound that is named as a salt.

human Factor XIa, sequence (P03951 388-625): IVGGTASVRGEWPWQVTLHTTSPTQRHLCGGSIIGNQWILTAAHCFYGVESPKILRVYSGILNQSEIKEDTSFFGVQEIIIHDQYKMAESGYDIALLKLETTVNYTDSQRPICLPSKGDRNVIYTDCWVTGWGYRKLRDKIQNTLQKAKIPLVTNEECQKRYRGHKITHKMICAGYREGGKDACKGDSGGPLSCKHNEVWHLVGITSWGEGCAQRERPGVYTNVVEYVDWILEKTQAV
human Factor XIa, sequence (P03951 19-387 partner): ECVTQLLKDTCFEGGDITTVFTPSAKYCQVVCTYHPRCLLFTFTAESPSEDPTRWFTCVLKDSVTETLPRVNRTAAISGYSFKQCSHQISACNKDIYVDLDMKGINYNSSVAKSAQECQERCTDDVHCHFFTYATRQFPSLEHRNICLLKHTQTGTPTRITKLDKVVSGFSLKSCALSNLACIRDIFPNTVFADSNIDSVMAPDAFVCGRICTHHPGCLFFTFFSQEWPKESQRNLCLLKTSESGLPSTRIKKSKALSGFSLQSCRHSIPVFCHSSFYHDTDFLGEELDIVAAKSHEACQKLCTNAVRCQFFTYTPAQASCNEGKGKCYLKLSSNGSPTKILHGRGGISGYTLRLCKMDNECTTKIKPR

The assay concerns the target human Factor XIa (Homo sapiens (Human), UniProt P03951). Briefly: Factor XIa Assay. Type of assay: biochemical. Particulars: read-out: FXIa Ki. Summed up: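 Ki derived from the dependence of Vo/Vi on inhibitor concentration under a competitive-inhibition model, after pre-equilibration of enzyme and inhibitor. Reaction: 40 pM human FXIa, 100 μM Z-Gly-Pro-Arg-AFC, HEPES 50 mM pH 7.4 with NaCl, CaCl2 and PEG 8000; run at room temperature or 37° C.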
Take `Cc1nc(C(=O)N[C@@H](Cc2ccccc2)C(=O)N2CCC3(C2)OC(=O)Nc2ccc(Cl)cc23)co1` (stereo partly shown) [Example 146]: the Ki amounted to 5000 nM.

Turning to `COc1ccc(C(=O)N[C@@H](Cc2ccccc2)C(=O)N2CCC3(C2)OC(=O)Nc2ccc(Cl)cc23)nc1` (stereo partly shown) [Example 147], the inhibitory constant (Ki) worked out at 4030 nM.

In the case of `CS(=O)(=O)c1ccc(C(=O)N[C@@H](Cc2ccccc2)C(=O)N2CCC3(C2)OC(=O)Nc2ccc(Cl)cc23)nc1` (stereo partly shown) [Example 148], the Ki was found to be 1870 nM.

With `N#Cc1ccc(C(=O)N[C@@H](Cc2ccccc2)C(=O)N2CCC3(C2)OC(=O)Nc2ccc(Cl)cc23)cc1` (stereo partly drawn) [Example 150, N-((2S)-1-(6-chloro-2-oxo-1,2-dihydrospiro[benzo[d][1,3]oxazine-4,3′-pyrrolidin]-1′-yl)-1-oxo-3-phenylpropan-2-yl)-4-cyanobenzamide], the Ki is 430 nM.

`O=C1Nc2ccc(Cl)cc2C2(CCN(C(=O)[C@H](Cc3ccccc3)NC(=O)c3ccc(-c4nnn[nH]4)cc3)C2)O1` (stereo partly drawn) [Example 151, N-((2S)-1-(6-chloro-2-oxo-1,2-dihydrospiro[benzo[d][1,3]oxazine-4,3′-pyrrolidin]-1′-yl)-1-oxo-3-phenylpropan-2-yl)-4-(1H-tetrazol-5-yl)benzamide]: the Ki came to 1780 nM.

As for `N#Cc1ccc(C(=O)N[C@@H](Cc2ccccc2)C(=O)N2CCC3(C2)OC(=O)Nc2ccc(Cl)cc23)cn1` (stereo partly shown) [Example 152], the Ki was 1020 nM.

Turning to `O=C1Nc2ccc(Cl)cc2C2(CCN(C(=O)[C@H](Cc3ccccc3)NC(=O)c3ccc4[nH]ccc4n3)C2)O1` (stereo partly shown) [Example 153], the Ki came to 488 nM.

In the case of `O=C1Nc2ccc(Cl)cc2C2(CCN(C(=O)[C@H](Cc3ccccc3)NC(=O)c3ccccc3-n3cccn3)C2)O1` (stereo partly drawn) [Example 154, N-((2S)-1-(6-chloro-2-oxo-1,2-dihydrospiro[benzo[d][1,3]oxazine-4,3′-pyrrolidin]-1′-yl)-1-oxo-3-phenylpropan-2-yl)-2-(1H-pyrazol-1-yl)benzamide], the Ki stood at 2520 nM.

With `O=C1Nc2ccc(Cl)cc2C2(CCN(C(=O)[C@H](Cc3ccccc3)NC(=O)c3ccnc(O)c3)C2)O1` (stereo partly shown) [Example 155], the Ki came to 169 nM.

Consider `O=C1Nc2ccc(Cl)cc2C2(CCN(C(=O)[C@H](Cc3ccccc3)NC(=O)c3ccon3)C2)O1` (stereo partly shown) [Example 156], for which the Ki is 2150 nM.

Turning to `O=C1Nc2ccc(Cl)cc2C2(CCN(C(=O)[C@H](Cc3ccccc3)NC(=O)C3CCC(CO)CC3)C2)O1` (stereo partly shown) [Example 157], the Ki turned out to be 3350 nM.

As to `O=C1Nc2ccc(Cl)cc2C2(CCN(C(=O)[C@H](Cc3ccccc3)NC(=O)c3ccc(CO)nc3)C2)O1` (stereo partly shown) [Example 158], the Ki worked out at 752 nM.

With `O=C1Nc2ccc(Cl)cc2C2(CCN(C(=O)[C@H](Cc3ccccc3)NC(=O)c3ccc(-n4ccnc4)nc3)C2)O1` (stereo partly shown) [Example 159], the Ki was found to be 743 nM.

`O=C1Nc2ccc(Cl)cc2C2(CCN(C(=O)[C@H](Cc3ccccc3)NC(=O)c3ccc(C4(C(=O)O)CC4)cc3)C2)O1` (stereo partly drawn) [Example 160, 1-(4-(((2S)-1-(6-chloro-2-oxo-1,2-dihydrospiro[benzo[d][1,3]oxazine-4,3′-pyrrolidin]-1′-yl)-1-oxo-3-phenylpropan-2-yl)carbamoyl)phenyl)cyclopropanecarboxylic acid]: the Ki came to 5000 nM.

As to `O=C1Nc2ccc(Cl)cc2C2(CCN(C(=O)[C@H](Cc3ccccc3)NC(=O)C3(c4ccc(C(=O)O)cc4)CC3)C2)O1` (stereo partly shown) [Example 161], the Ki is 4490 nM.

With `O=C1Nc2ccc(Cl)cc2C2(CCN(C(=O)[C@H](Cc3ccccc3)NC(=O)c3ccc(NC(=O)C(F)(F)F)cc3)C2)O1` (stereo partly drawn) [Example 162, N-((2S)-1-(6-chloro-2-oxo-1,2-dihydrospiro[benzo[d][1,3]oxazine-4,3′-pyrrolidin]-1′-yl)-1-oxo-3-phenylpropan-2-yl)-4-(2,2,2-trifluoroacetamido)benzamide], the Ki was found to be 594 nM.

Take `CS(=O)(=O)Nc1ccc(C(=O)N[C@@H](Cc2ccccc2)C(=O)N2CCC3(C2)OC(=O)Nc2ccc(Cl)cc23)cc1` (stereo partly drawn) [Example 163, N-((2S)-1-(6-chloro-2-oxo-1,2-dihydrospiro[benzo[d][1,3]oxazine-4,3′-pyrrolidin]-1′-yl)-1-oxo-3-phenylpropan-2-yl)-4-(methylsulfonamido)benzamide]: the Ki came to 63.2 nM.

For the compound `COC(=O)Nc1ccc(C(=O)N[C@@H](Cc2ccccc2)C(=O)N2CCC3(C2)OC(=O)Nc2ccc(Cl)cc23)nc1` (stereo partly shown) [Example 166], the inhibition constant Ki is 184 nM.

As to `O=C1Nc2ccc(Cl)cc2C2(CCN(C(=O)[C@H](Cc3ccccc3)NC(=O)c3cnc4[nH]c(=O)oc4c3)C2)O1` (stereo partly shown) [Example 167], the Ki was found to be 4160 nM.

Take `CC(=O)Nc1cc(C(=O)N[C@@H](Cc2ccccc2)C(=O)N2CCC3(C2)OC(=O)Nc2ccc(Cl)cc23)ccn1` (stereo partly shown) [Example 168]: the Ki came out at 576 nM.

On to `O=C1Nc2ccc(Cl)cc2C2(CCN(C(=O)[C@H](Cc3ccccc3)NC(=O)c3cccc(N4CCNC4=O)c3)C2)O1` (stereo partly drawn) [Example 169, N-((2S)-1-(6-chloro-2-oxo-1,2-dihydrospiro[benzo[d][1,3]oxazine-4,3′-pyrrolidin]-1′-yl)-1-oxo-3-phenylpropan-2-yl)-3-(2-oxoimidazolidin-1-yl)benzamide], for which the Ki is 774 nM.

For `Cc1nc(N)sc1C(=O)N[C@@H](Cc1ccccc1)C(=O)N1CCC2(C1)OC(=O)Nc1ccc(Cl)cc12` (stereo partly shown) [Example 170], the Ki was 508 nM.

As for `O=C1Nc2ccc(Cl)cc2C2(CCN(C(=O)[C@H](Cc3ccccc3)NC(=O)c3ccc4c(c3)C(=O)NC4)C2)O1` (stereo partly shown) [Example 172], the Ki worked out at 328 nM.

`C[C@@H]1NC(=O)O[C@H]1c1cccc(C(=O)N[C@@H](Cc2ccccc2)C(=O)N2CCC3(C2)OC(=O)Nc2ccc(Cl)cc23)c1` (stereo partly drawn) [Example 173, N-((2S)-1-(6-chloro-2-oxo-1,2-dihydrospiro[benzo[d][1,3]oxazine-4,3′-pyrrolidin]-1′-yl)-1-oxo-3-phenylpropan-2-yl)-3-((4S,5S)-4-methyl-2-oxooxazolidin-5-yl)benzamide]: the Ki came out at 385 nM.

With `O=C1Cc2ccc(C(=O)N[C@@H](Cc3ccccc3)C(=O)N3CCC4(C3)OC(=O)Nc3ccc(Cl)cc34)cc2N1` (stereo partly shown) [Example 174], the Ki turned out to be 261 nM.

As to `Nc1nc(C(=O)N[C@@H](Cc2ccccc2)C(=O)N2CCC3(C2)OC(=O)Nc2ccc(Cl)cc23)cs1` (stereo partly shown) [Example 175], the Ki was found to be 212 nM.

In the case of `O=C1Nc2ccc(Cl)cc2C2(CCN(C(=O)[C@H](Cc3ccccc3)NC(=O)c3ccc4[nH]cnc4c3)C2)O1` (stereo partly shown) [Example 176], the Ki is 59.8 nM.

Take `O=C1Nc2ccc(Cl)cc2C2(CCN(C(=O)[C@H](Cc3ccccc3)NC(=O)c3cc(O)ncn3)C2)O1` (stereo partly shown) [Example 177]: the Ki is 559 nM.

For the compound `O=C1Nc2ccc(Cl)cc2C2(CCN(C(=O)[C@H](Cc3ccccc3)NC(=O)c3ccc(O)c(F)c3)C2)O1` (stereo partly drawn) [Example 178, N-((2S)-1-(6-chloro-2-oxo-1,2-dihydrospiro[benzo[d][1,3]oxazine-4,3′-pyrrolidin]-1′-yl)-1-oxo-3-phenylpropan-2-yl)-3-fluoro-4-hydroxybenzamide], the Ki worked out at 251 nM.

Consider `N=C(N)Nc1ccc(C(=O)N[C@@H](Cc2ccccc2)C(=O)N2CCC3(C2)OC(=O)Nc2ccc(Cl)cc23)cc1` (stereo partly drawn) [Example 179, N-((2S)-1-(6-chloro-2-oxo-1,2-dihydrospiro[benzo[d][1,3]oxazine-4,3′-pyrrolidin]-1′-yl)-1-oxo-3-phenylpropan-2-yl)-4-guanidinobenzamide], for which the Ki turned out to be 454 nM.

`Nc1nc2cc(C(=O)N[C@@H](Cc3ccccc3)C(=O)N3CCC4(C3)OC(=O)Nc3ccc(Cl)cc34)ccc2[nH]1` (stereo partly shown) [Example 180]: the Ki came out at 56.7 nM.

`O=C1Nc2ccc(Cl)cc2C2(CCN(C(=O)[C@H](Cc3ccccc3)NC(=O)c3ccc4cn[nH]c4c3)C2)O1` (stereo partly shown) [Example 182]: the Ki is 137 nM.

In the case of `O=C1Nc2ccc(Cl)cc2C2(CCN(C(=O)[C@H](Cc3ccccc3)NC(=O)c3ccc4oc(=O)[nH]c4c3)C2)O1` (stereo partly shown) [Example 183], the inhibition constant (Ki) was 86.9 nM.

Consider `O=C1Nc2ccc(Cl)cc2C2(CCN(C(=O)[C@H](Cc3ccccc3)NC(=O)c3ccc4c(c3)S(=O)(=O)NC4=O)C2)O1` (stereo partly shown) [Example 184], for which the Ki was 5000 nM.

Take `Nc1n[nH]c2ccc(C(=O)N[C@@H](Cc3ccccc3)C(=O)N3CCC4(C3)OC(=O)Nc3ccc(Cl)cc34)cc12` (stereo partly shown) [Example 185]: the Ki is 96 nM.

As to `COCCOC(=O)Nc1ccc(C(=O)N[C@@H](Cc2ccccc2)C(=O)N2CCC3(C2)OC(=O)Nc2ccc(Cl)cc23)cn1` (stereo partly shown) [Example 186], the Ki was 166 nM.

In the case of `O=C1CCCc2cc(C(=O)N[C@@H](Cc3ccccc3)C(=O)N3CCC4(C3)OC(=O)Nc3ccc(Cl)cc34)ccc2N1` (stereo partly shown) [Example 187], the Ki came out at 151 nM.

`O=C(Nc1ccc(C(=O)N[C@@H](Cc2ccccc2)C(=O)N2CCC3(C2)OC(=O)Nc2ccc(Cl)cc23)cc1)OCCN1CCNCC1` (stereo partly drawn) [Example 190, 2-(Piperazin-1-yl)ethyl (4-(((2S)-1-(6-chloro-2-oxo-1,2-dihydrospiro[benzo[d][1,3]oxazine-4,3′-pyrrolidin]-1′-yl)-1-oxo-3-phenylpropan-2-yl)carbamoyl)phenyl)carbamate 2 trifluoroacetic acid salt]: the Ki was found to be 76.7 nM.

`O=C1C[S+]([O-])c2cc(C(=O)N[C@@H](Cc3ccccc3)C(=O)N3CCC4(C3)OC(=O)Nc3ccc(Cl)cc34)ccc2N1` (stereo partly drawn) [Example 192, N-((2S)-1-(6-chloro-2-oxo-1,2-dihydrospiro[benzo[d][1,3]oxazine-4,3′-pyrrolidine]-1′-yl)-1-oxo-3-phenylpropan-2-yl)-3-oxo-3,4-dihydro-2H-benzo[b][1,4]thiazine-7-carboxamide 1-oxide]: the Ki stood at 99.7 nM.

Take `O=C1CS(=O)(=O)c2cc(C(=O)N[C@@H](Cc3ccccc3)C(=O)N3CCC4(C3)OC(=O)Nc3ccc(Cl)cc34)ccc2N1` (stereo partly drawn) [Example 193, N-((2S)-1-(6-chloro-2-oxo-1,2-dihydrospiro[benzo[d][1,3]oxazine-4,3′-pyrrolidine]-1′-yl)-1-oxo-3-phenylpropan-2-yl)-3-oxo-3,4-dihydro-2H-benzo[b][1,4]thiazine-7-carboxamide 1,1-dioxide]: the Ki came to 145 nM.

Values taken from patent publication US10093683B2, “Factor XIa inhibitors” (Merck Sharp & Dohme Corp., priority 2014, dated 2018).
